The values that follow come from PMC8347464, “Design, Synthesis, and In Vitro Antiproliferative Activity of Hydantoin and Purine Derivatives with the 4-Acetylphenylpiperazinylalkyl Moiety” (Materials, 2021).

Data set [1] relates to SW480 cells (human primary colon cancer). In words: MTT assay, SW480 cells. It counts as cell-based. The note with it: for IC50: Homo sapiens, SW480, MTT, 72 h, mean ± SD; for effectiveness against SW480 cells (in words): based on IC50, MTT 72 h. From the text:
(§1) Primary and metastatic colon cancer (SW480, SW620), metastatic prostate cancer (PC3), and human immortal keratinocyte (HaCaT) cell lines and immortal microvascular endothelial cells (HMEC-1) were obtained from the American Type Culture Collection (ATCC, Rockville, USA) and cultured in recommended medium, namely, MEM (Biowest SAS, France) for the SW480 and SW620 cells, RPMI 1640 (Biowest SAS, Nuaillé, France) for PC3, DMEM (Biowest SAS, France) for HaCaT and MCDB 131 (PAN BioTech, Aidenbach, Germany) for HMEC-1. The SW480 and SW620 cell lines were initiated by A. Leibovitz et al. and derived from a human primary colon adenocarcinoma and lymph node metastasis of the same patient. respectively. PC3 cell cells were initiated from a bone metastasis of a human prostatic adenocarcinoma. HaCaT cells were obtained from adult human skin, while HMEC-1 cells were established from the dermis of a human neonate. Cells were cultured in recommended medium supplemented with 10% FBS (Biowest SAS, Nuaillé, France), penicillin (100 U/mL), streptomycin […] (Gibco Life Technologies, Waltham MA, USA) and incubated at 37 °C under 5% CO2. The culture medium of HMEC-1 cells was additionally supplemented with glutamine (1 mM) and microvascular growth supplement (5%) (MVGS; Gibco, USA). The cells were cultured until 80% confluency was reached, harvested by treatment with 0.25% trypsin 0.02% EDTA (Gibco Life Technologies, Waltham, MA, USA) and subsequently used for further experiments.
(§2) Cell viability was estimated using a conversion of 3-(4,5-dimethylthiazol-2-yl)-2,5-diphenyltetrazolium bromide salt (MTT) to insoluble formazan crystals by mitochondrial dehydrogenases, present in living cells. Cells were cultured in 96-well plates (l × 10^4 cells per well) and incubated for 24 h at 37 °C under 5% CO2. Next, the cells were treated with various concentrations of the tested compounds (ranging from 10 to 180 μM) and incubated for 72 h at 37 °C under 5% CO2. Untreated cells were used as the control. Next, the medium was removed, MTT solution (0.5 mg/mL) was added to each well, and the cells were incubated for 4 h at 37 °C under 5% CO2. After that, the obtained formazan crystals were dissolved in DMSO and isopropanol (1:1, v/v). The optical density of the dissolved crystals was measured at a wavelength of 570 nm using a UVM 340 reader (ASYS Hitech GmbH, Austria). Cell viability was presented as a percent of MTT reduced in treated cells versus control cells. The relative MTT level (%) was calculated as [A]/[B] × 100, where [A] is the absorbance of the test sample, and [B] is the absorbance of the control sample. The IC50 value was estimated using CompuSyn version 1.0.

The subject of data set [2] is SW620 cells (human metastatic colon cancer). The experiment in a line: MTT assay, SW620 cells. It counts as cell-based. The conditions noted are these: SW-620, 72 h, mean ± SD.
Description: as §1, §2

Data set [3] concerns PC3 cells (human metastatic prostate cancer). In words: MTT assay, PC3 cells. It counts as cell-based. The note with it: for IC50: Homo sapiens, PC-3, MTT, 72 h, mean ± SD.
Description: as §1, §2

Data set [4] relates to HaCaT cells (human immortal keratinocyte). In words: MTT assay, HaCaT normal cells. It counts as cell-based. The conditions noted are these: for IC50: Homo sapiens, HaCaT, MTT, 72 h, mean ± SD, normal cells.
Description: as §1, §2

For data set [5], the system named is panel of 60 human cancer cell lines. Further details: method as in PMID 33387732. The note with it: dose of 10 µM ref 14; cited from earlier work.
Data set [6] concerns HMEC-1 cells (human immortal microvascular endothelial cells). The experiment in a line: MTT assay, HMEC-1 normal cells. It counts as cell-based. The note with it: 72 h, mean ± SD. From the text:
Primary and metastatic colon cancer (SW480, SW620), metastatic prostate cancer (PC3), and human immortal keratinocyte (HaCaT) cell lines and immortal microvascular endothelial cells (HMEC-1) were obtained from the American Type Culture Collection (ATCC, Rockville, USA) and cultured in recommended medium, namely, MEM (Biowest SAS, France) for the SW480 and SW620 cells, RPMI 1640 (Biowest SAS, Nuaillé, France) for PC3, DMEM (Biowest SAS, France) for HaCaT and MCDB 131 (PAN BioTech, Aidenbach, Germany) for HMEC-1. The SW480 and SW620 cell lines were initiated by A. Leibovitz et al. and derived from a human primary colon adenocarcinoma and lymph node metastasis of the same patient. respectively. PC3 cell cells were initiated from a bone metastasis of a human prostatic adenocarcinoma. […]
Cell viability was estimated using a conversion of 3-(4,5-dimethylthiazol-2-yl)-2,5-diphenyltetrazolium bromide salt (MTT) to insoluble formazan crystals by mitochondrial dehydrogenases, present in living cells. […] The optical density of the dissolved crystals was measured at a wavelength of 570 nm using a UVM 340 reader (ASYS Hitech GmbH, Austria). […] The relative MTT level (%) was calculated as [A]/[B] × 100, where [A] is the absorbance of the test sample, and [B] is the absorbance of the control sample. […]

The test system of a further data set is human erythrocytes. In words: Determination of hemolytic activity. The conditions noted are these: 10^−6 or 10^−5 M, 37 °C, 30 min, PBS. It counts as cell-based. The procedure: The hemolysis experiment was performed according to the previous report and was approved by the Bioethics Commission at the Lower Silesian Medical Chamber (1/PNHAB/2018). Freshly isolated human erythrocytes were incubated with compound 4 dissolved in DMSO (final concentration of 10^−6 or 10^−5 M) in PBS buffer at 37 °C for 30 min. The samples were then centrifuged and the absorbance of hemoglobin in the supernatants was measured at 540 nm. Additionally, negative (erythrocytes in PBS buffer), positive (erythrocytes in distilled water), and DMSO controls were also performed.

Data set [7] has as its target T1, E. coli TP (thymidine phosphorylase, TP/PD-ECGF) (Escherichia coli, UniProt P07650).
T1 construct: purchased Sigma T6632
The experiment in a line: Thymidine phosphorylase inhibition. It counts as biochemical. The conditions noted are these: 100 µM screening concentration.
Description: TP/PD-ECGF (E. coli TP (Sigma T6632)) activity was determined by measuring the absorbance at 290 nm spectrophotometrically, according to the manufacturer′s procedure [25]. Briefly the reaction mixture of 145 µL of potassium phosphate buffer (pH 7.4), 20 µL of 1.5 mM Thymidine 50 monophosphate solution as substrate, and 30 µL of an enzyme (E. coli TP, 0.05 and 0.002 U) was incubated with 5 µL of test materials for 10 min at 25 °C in a 96-well, flat bottom microplate (200 µL). Readings were taking by a microplate reader (SpectraMax Plus384, USA) at 290 nm. The readings were taken continuously after 10, 20, and 30 min by a microplate reader. All assays were performed in triplicate.

T1 sequence (P07650 whole entry): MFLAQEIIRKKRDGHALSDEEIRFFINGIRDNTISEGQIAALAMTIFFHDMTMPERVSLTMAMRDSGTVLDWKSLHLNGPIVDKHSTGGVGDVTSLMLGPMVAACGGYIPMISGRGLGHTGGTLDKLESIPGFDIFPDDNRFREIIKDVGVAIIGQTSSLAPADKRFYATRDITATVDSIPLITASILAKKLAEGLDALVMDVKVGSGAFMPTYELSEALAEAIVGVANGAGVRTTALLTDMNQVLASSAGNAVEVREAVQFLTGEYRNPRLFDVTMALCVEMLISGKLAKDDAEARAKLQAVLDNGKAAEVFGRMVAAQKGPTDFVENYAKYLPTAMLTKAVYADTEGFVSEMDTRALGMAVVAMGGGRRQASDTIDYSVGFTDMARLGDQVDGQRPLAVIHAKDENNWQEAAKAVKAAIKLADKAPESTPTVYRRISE

`CC(=O)c1ccc(N2CCN(CCCCN3C(=O)NC4(Cc5ccccc5C4)C3=O)CC2)cc1` [Compound 5, (R,S)-1-{4-[4-(4-Acetylophenyl)piperazyn-1-yl]butyl}-1′,3′-dihydro-2H,5H-spiro[imidazolidine-4,2′-indene]-2,5-dione] gave a melting point of 213.8 to 214.9 °C. In addition, half-maximal inhibition in [1] (IC50) required 102 ± 2.37 µM. Further, in data set [2], the IC50 was greater than 200 µM. In [3], this molecule registered an IC50 greater than 200 µM. Besides, in [4], the IC50 was greater than 200 µM.

As to `CC(=O)c1ccc(N2CCN(CCCCn3c(=O)ccn4c5c(=O)n(C)c(=O)n(C)c5nc34)CC2)cc1` [Compound 12, 9-(4-(4-(4-Acetylphenyl)piperazin-1-yl)butyl)-1,3-dimethylpyrimido[2,1-f]purine-2,4,8(1H,3H,9H)-trione], the IC50 in data set [1] was greater than 200 µM; in data set [2] it was 169 ± 22.9 µM; in data set [3], 71.9 ± 9.85 µM; in data set [4], 83.9 ± 4.2 µM.

The molecule `CC(=O)c1ccc(N2CCN(CCCCn3ccn4c5c(=O)n(C)c(=O)n(C)c5nc34)CC2)cc1` [Compound 9, 8-(4-(4-(4-Acetylphenyl)piperazin-1-yl)butyl)-1,3-dimethyl-1H-imidazo[2,1-f]purine-2,4(3H,8H)-dione] displayed a melting point of 252 to 253 °C. This molecule also yielded an IC50 in data set [1] of 153 ± 11.3 µM. In data set [2], this molecule had an IC50 of 145 ± 3.76 µM. In data set [3], this molecule showed an IC50 of 101 ± 15.4 µM. Moreover, the IC50 in data set [4] is 72.8 ± 6.08 µM.

Take `CC(=O)c1ccc(N2CCN(CCCCCn3ccn4c5c(=O)n(C)c(=O)n(C)c5nc34)CC2)cc1` [Compound 11, 8-(5-(4-(4-Acetylphenyl)piperazin-1-yl)pentyl)-1,3-dimethyl-1H-imidazo[2,1-f]purine-2,4(3H,8H)-dione]: the IC50 in data set [1] is greater than 200 µM; in [2] it was 97.7 ± 10.7 µM; in data set [3] it was 60.28 ± 0.4 µM; in data set [4], 58.6 ± 4.91 µM.

With `CC(=O)c1ccc(NC(=O)Cn2c(Br)nc3c2c(=O)n(C)c(=O)n3C)cc1` [Compound 22e, N-(4-acetylphenyl)-2-[8-bromo-1,3-dimethyl-2,6-dioxo-2,3-dihydro-1H-purin-7(6H)-yl]acetamide], the “growth inhibition (in words)” value in data set [5] is given as “moderate growth inhibition”.

`CC(=O)c1ccc(N2CCN(CCCCN3C(=O)NC4(CCc5ccccc54)C3=O)CC2)cc1` (racemic) [Compound 1, (R,S)-1-(4-(4-(4-Acetylphenyl)piperazin-1-yl)butyl)-2′,3′-dihydrospiro[imidazolidine-4,1′-indene]-2,5-dione] showed a melting point of 180.2 to 181.3 °C. Besides, in data set [1], the IC50 is 54.2 ± 3.89 µM and the “effectiveness against SW480 cells (in words)” value (from here on “effectiveness”) is recorded as “effective”. In addition, it took 67 ± 5.24 µM to reach half-maximal inhibition in data set [2] (IC50). The IC50 in data set [3] was 57.6 ± 5.86 µM. For the same molecule, the IC50 in [4] stood at 41.8 ± 7.62 µM.

Turning to `CC(=O)c1ccc(N2CCN(CCCCn3c(=O)c(Br)cn4c5c(=O)n(C)c(=O)n(C)c5nc34)CC2)cc1` [Compound 14, 9-(4-(4-(4-Acetylphenyl)piperazin-1-yl)butyl)-7-bromo-1,3-dimethylpyrimido[2,1-f]purine-2,4,8(1H,3H,9H)-trione], the IC50 is greater than 200 µM in data set [1], greater than 200 µM in [2], 91 ± 5.86 µM in data set [3] and 96.5 ± 4.93 µM in [4].

For the molecule `CC(=O)c1ccc(N2CCN(CCCCn3c(C)cn4c5c(=O)n(C)c(=O)n(C)c5nc34)CC2)cc1` [Compound 10, 8-(4-(4-(4-Acetylphenyl)piperazin-1-yl)butyl)-1,3,7-trimethyl-1H-imidazo[2,1-f]purine-2,4(3H,8H)-dione], the IC50 in data set [1] is greater than 200 µM; in [2], 131 ± 12.6 µM; in data set [3], 86.1 ± 9.85 µM; in data set [4] it was 96.1 ± 5.32 µM.

For `CC(=O)c1ccc(N2CCN(CCCCCN3C(=O)NC4(CCc5ccccc54)C3=O)CC2)cc1` (racemic) [Compound 2, (R,S)-1-(5-(4-(4-Acetylphenyl)piperazin-1-yl)pentyl)-2′,3′-dihydrospiro[imidazolidine-4,1′-indene]-2,5-dione], the melting point is 155.3 to 156.2 °C. In [1], the IC50 was 40.7 ± 3.54 µM and the “effectiveness” value is “effective”. This molecule also displayed a half-maximal inhibitory concentration (IC50) in [2] of 43.1 ± 4.41 µM. Moreover, the IC50 in data set [3] is 36.2 ± 4.98 µM. In addition, the “growth-inhibitory potency against PC3 (in words)” value in [3] (MTT 72 h) is given as “moderate growth-inhibitory potency”. This molecule also had an IC50 in data set [4] of 22.6 ± 2.69 µM.

In turn, `CC(=O)c1ccc(N2CCN(CCCCCN3C(=O)NC4(CCCc5ccccc54)C3=O)CC2)cc1` (racemic) [Compound 4, (R,S)-1-(5-(4-(4-Acetylphenyl)piperazin-1-yl)pentyl)-3′,4′-dihydro-2′H-spiro[imidazolidine-4,1′-naphthalene]-2,5-dione] displayed a melting point of 134.3 to 135.1 °C. In [1], the IC50 was 16.8 ± 2.37 µM and the “effectiveness” value is “effective”. Also, in data set [2], the IC50 was determined as 12.9 ± 3.16 µM. The molecule also displayed a 50% inhibitory concentration (IC50) in [3] of 20.6 ± 3.35 µM. In addition, in [4] (72-h exposure), the “cytotoxic effect on HaCaT (in words)” value is on record as “no significant cytotoxic effect”. In data set [4], this molecule came in with an IC50 of 36.8 ± 5.32 µM. Besides, in data set [6], it took 149 ± 10.6 µM to reach half-maximal inhibition (IC50). The “hemolytic activity against human red blood cells” value in the data set with human erythrocytes is recorded as “no hemolytic activity”. In addition, in data set [7], the “inhibition of thymidine phosphorylase activity” value is 21.21%.

Take `CC(=O)c1ccc(N2CCN(CCCCCn3c(=O)ccn4c5c(=O)n(C)c(=O)n(C)c5nc34)CC2)cc1` [Compound 13, 9-(5-(4-(4-Acetylphenyl)piperazin-1-yl)pentyl)-1,3-dimethylpyrimido[2,1-f]purine-2,4,8(1H,3H,9H)-trione]: the IC50 in [1] was greater than 200 µM; in [2] it was greater than 200 µM; in data set [3] it was 94.2 ± 8.36 µM; in data set [4] it was 126 ± 14.3 µM.

As to `COc1cccc2c1C(=O)c1c(O)c3c(c(O)c1C2=O)C[C@@](O)(C(=O)CO)C[C@@H]3O[C@H]1C[C@H](N)[C@H](O)[C@H](C)O1` [Doxorubicin, reference compound], the IC50 was found to be 0.29 ± 0.08 µM in data set [1], 0.59 ± 0.02 µM in [3] and 0.24 ± 0.03 µM in data set [4].

With `CC(=O)c1ccc(N2CCN(CCCCN3C(=O)NC4(CCCc5ccccc54)C3=O)CC2)cc1` (racemic) [Compound 3, (R,S)-1-(4-(4-(4-Acetylphenyl)piperazin-1-yl)butyl)-3′,4′-dihydro-2′H-spiro[imidazolidine-4,1′-naphthalene]-2,5-dione], the melting point fell in the range of 168.8 to 170.2 °C. This molecule registered an IC50 in [1] of 129 ± 10.8 µM. Further, in data set [2], the IC50 was 104 ± 7.36 µM. In addition, in [3], the IC50 stood at 64.5 ± 6.76 µM. In [4], inhibition was half-maximal at 114 ± 8.93 µM (IC50).

For the molecule `CC(=O)c1ccc(N2CCN(CCCCCN3C(=O)NC4(Cc5ccccc5C4)C3=O)CC2)cc1` [Compound 6, (R,S)-1-{5-[4-(4-Acetylophenyl)piperazyn-1-yl]pentyl}-1′,3′-dihydro-2H,5H-spiro[imidazolidine-4,2′-indene]-2,5-dione], the melting point was in the range of 157.4 to 157.7 °C. Besides, in [1], the IC50 turned out to be 53.7 ± 7.78 µM and the “effectiveness” value is “effective”. In data set [2], inhibition was half-maximal at 78.3 ± 4.76 µM (IC50). In data set [3], this molecule yielded an IC50 of 95.1 ± 8.4 µM. The same molecule returned an IC50 in [4] of 159 ± 14.1 µM.
